The structures appear in SMILES notation. Structures can show the parent of a compound that is named as a salt. Where two headings read alike, the source gives them in different places. Where only a bound is given, the exact number is not on record here.

Assay [1] deals with T1, IDH1/R132H (Homo sapiens, UniProt O75874, R132H).
T1 construct: His-tag (N); made in house; host or cells: E. coli
Briefly: Biochemical assay for IDH1 R132H mutant enzyme (2HG by RapidFire MS). Conditions: mean ± standard deviation of the mean; 90 minutes reaction. As to the method: (§1) IDH1-R132H, IDH1-R132C, IDH2-R172K and IDH2-R140Q mutant enzymes catalyze the conversion of αKG to 2HG. 2HG is analyzed using in-line solid phase extraction and mass spectrometry. This analysis is carried out in a RapidFire® instrument coupled to a 6460 triple quadrupole mass spectrometer (G6460A Agilent).
(§2) IDH1 mutant (R132H and R132C) and IDH2 mutant (R140Q and R172K) proteins containing N-terminal His-tag are expressed in E. coli and purified using nickel affinity chromatography. The enzyme assays are carried out in V-bottom 96 well polypropylene plates containing 100 mM Tris-HCl buffer, 1 mM DTT, 0.005% TRITON™ X-100, 120 mM NaCl. For IDH1 R132H, α-ketoglutarate, NADPH and MnCl2 are included at final concentrations of 300 μM, 2.5 μM and 300 μM respectively. For IDH1 R132C, α-ketoglutarate, NADPH and MnCl2 are included at final concentrations of 100 μM, 10 μM and 100 μM respectively. For IDH2 R172K, α-ketoglutarate, NADPH and MnCl2 are included at final concentrations of 150 μM, 10 μM and 150 μM respectively. For IDH2 R140Q, α-ketoglutarate, NADPH and MnCl2 are included at final concentrations of 3000 μM, 10 μM and 100 μM respectively. Final pH=7.0. Test compound dissolved in DMSO stock is diluted in the reaction mix at a final DMSO concentration of 4%. Compounds are tested in dose-response format. The assay is started by addition of enzyme. Enzymes are used at the following final concentrations: IDH1 R132H, 2 nM; IDH1 R132C, 0.5 nM; IDH2 R172K, 1.2 nM; IDH2 R140Q, 1.2 nM. After 90 minutes the reaction is quenched by adding ACN (50:50) containing 3-hydroxy-1,5-pentanedioic-2,2,3,4,4-d5 acid (5d5-3HG) as an internal standard for mass spectrometry analysis and quantitation of reaction product. 2-Hydroxyglutarate (2HG) in quenched samples is separated using strong anionic exchange column chromatography (Phenomenex Strata-X-A SecurityGuard) and analyzed by mass spectrometry in a 6460 triple quadrupole mass spectrometer (G6460A Agilent). The 2HG signal detected is transformed into an analyte concentration using a calibration curve generated using known 2HG concentrations. […] IC50 values are obtained from the individual % inhibition values at different compound concentrations using a 4-parameter equation. These calculations are carried out using Activity Base (IDBS) or Screener (Genedata) data analysis programs.

For assay [2], the target named is T2, IDH1/R132C (Homo sapiens, UniProt O75874, R132C).
T2 construct: His-tag (N); made in house; host or cells: E. coli
T2 sequence (O75874 whole entry R132C): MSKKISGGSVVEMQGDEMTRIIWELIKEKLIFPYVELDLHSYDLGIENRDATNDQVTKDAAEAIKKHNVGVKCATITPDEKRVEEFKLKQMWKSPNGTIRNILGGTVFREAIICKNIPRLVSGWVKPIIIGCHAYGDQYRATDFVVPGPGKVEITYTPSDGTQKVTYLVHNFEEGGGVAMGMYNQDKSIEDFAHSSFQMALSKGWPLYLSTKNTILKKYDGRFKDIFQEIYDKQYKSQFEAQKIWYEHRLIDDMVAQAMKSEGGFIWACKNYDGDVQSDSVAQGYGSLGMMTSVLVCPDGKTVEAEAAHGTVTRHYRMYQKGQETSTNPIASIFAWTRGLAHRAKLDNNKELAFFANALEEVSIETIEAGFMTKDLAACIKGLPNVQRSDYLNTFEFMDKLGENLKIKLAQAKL
In words: Biochemical assay for IDH1 R132C mutant enzyme (2HG by RapidFire MS). The note with it: mean ± standard deviation of the mean; 90 minutes reaction. As to the method: as §1, §2

The test system of assay [3] is IDH1 mutant R132C in fibrosarcoma cell line HT1080. Briefly: HT1080 cell assay (intracellular 2HG and αKG). Format: cell-based. The note with it: Homo sapiens, 1 hour + 18 hours incubation. As to the method:
(§3) To test the cellular inhibition of IDH1 mutant R132C, the fibrosarcoma cell line HT1080 (purchased from ATCC) is used. For testing cell-based inhibition of the R132H mutation, the U87MG glioma cell line (ATCC) was stably transfected with a DNA construct expressing the R132H mutant enzyme.
Fifteen thousand cells are plated in poly-D-lys coated 96 well plates (15,000 cells/well) 18-24 hours prior to treatment with compounds. Four hours prior to compound treatment, cells are glutamine-starved by removing normal media and replacing with glutamine-free media. Following starvation, cells are then treated with different concentrations of test compounds (20 μM to 1 nM) dissolved in glutamine free media containing DMSO at a final concentration of 0.2%. The initial compound incubation is for 1 hour at 37° C./5% CO2. After 1 hour, glutamine is added to a final 2 mM concentration and the treated cells are then incubated for a further 18 hours at 37° C./5% CO2. Following the 18 hour incubation, intracellular 2HG and αKG are analyzed in cell lysates. Lysates are prepared following removal of media and addition of buffer containing 25 mM Tris-HCl pH 7.5, 150 mM NaCl, 1 mM EDTA, 1 mM EGTA/1% Triton-X 100 to the cells. An aliquot of lysate is added to a mix of d6-αKG and d5-3HG as internal standards and the mixture is treated with O-benzylhydroxylamine in the presence of N-(3-dimethylaminopropyl)-N′-ethylcarbodiimide hydrochloride (EDC) and pyridine. Analyte derivatives are then extracted with EtOAc, dried, and then reconstituted with 50% MeOH in H2O. Samples prepared as described are injected into the HPLC to separate 2HG and αKG derivatives (and corresponding internal standards) using a reverse phase chromatography in a C18 column. Analysis of the samples is carried out using a 6460 triple quadrupole mass spectrometer (G6460A Agilent). The 2HG and αKG signals detected are transformed into analyte concentration using the ratio of αKG/d6-αKG and the ratio of 2HG/d5-3HG that is extrapolated within a calibration curve. Percent inhibition for each individual sample is obtained after normalizing calculated 2HG or aKG concentration to maximum and minimum references obtained in the presence and in the absence of glutamine during cell treatment with compounds. IC50 values are obtained from individual % inhibition using a sigmoidal dose-response 4-parameter equation. These calculations are carried out automatically using Activity Base (IDBS) or Screener (Genedata) data analysis programs.

The test system of assay [4] is IDH1/R132H in U87MG glioma cells. Briefly: U87MG/IDH1R132H cell assay (intracellular 2HG). The note with it: Homo sapiens, U-87 MG, 19 h, 1 hour + 18 hours incubation, read-out: U87MG (IDH1/R132H 2-hydroxyglutarate IC50). In kind it is cell-based. As to the method:
as §3
Cells are plated in poly-D-lys coated 96 well plates (12,000 cells/well) 18-24 hours previous to treatment with compounds. Four hours prior to compound treatment, cells are glutamine-starved by removing normal media and replacing with glutamine-free media. Following starvation, cells are then treated with different concentrations of test compounds (20 μM to 1 nM) dissolved in glutamine free media containing DMSO at a final concentration of 0.2%. The initial compound incubation is for 1 hour at 37° C./5% CO2. After 1 hour, glutamine is added to a final 2 mM concentration and the treated cells are then incubated for a further 18 hours at 37° C./5% CO2. Intracellular 2HG is analyzed in cell lysates obtained after media removal and treatment with lysis buffer (25 mM Tris-HCl pH 7.5, 150 mM NaCl, 1 mM EDTA, 1 mM EGTA/1% Triton-X 100). Cell lysates are conserved at −80° C. until processing. For analyte extraction, an aliquot of thawed lysate is transferred to a deep 96-well plate and treated with cold MeOH containing d5-3HG as an internal standard followed by chloroform and H2O (1:4:3:2). The upper phase is collected after separation and injected in HPLC to separate 2HG (and internal standard) using hydrophilic interaction (HILIC) chromatography coupled to MS/MS detection in a 6460 triple quadrupole mass spectrometer. Percent inhibition for each individual sample is obtained after normalizing calculated 2HG concentration to maximum and minimum references obtained in the presence and in the absence of glutamine during cell treatment with compounds. IC50 values are obtained from individual % inhibition using a sigmoidal dose-response 4-parameter equation. These calculations are carried out automatically using Activity Base (IDBS) or Screener (Genedata) data analysis programs.

[5] abbreviates: HT-1080, 19 h, intracellular 2HG, read-out: HT1080 (R132C, 2-hydroxyglutarate) IC50.
[6] abbreviates: HT-1080, intracellular αKG, read-out: HT1080 (R132C, αKG) IC50.

T1 sequence (O75874 whole entry R132H): as the sequence (O75874 whole entry R132C) above, with C132H counted along it

Regarding `C=CC(=O)N1CCN(c2ccc([C@H](C)Nc3ncc4c(n3)N(CC)C(=O)OC4)cc2)CC1` [Example 18, 1-Ethyl-7-[[(1S)-1-[4-(4-prop-2-enoylpiperazin-1-yl)phenyl]ethyl]amino]-4H-pyrimido[4,5-d][1,3]oxazin-2-one], the IC50 is 0.211 µM in assay [1]; 0.192 µM in assay [2]; 0.38 ± 0.13 µM in assay [3] (setting [5]); above 20 µM in assay [3] (setting [6]); 0.0707 µM in assay [4].
In the case of `C=CC(=O)N1CCN(Cc2ccc([C@H](C)Nc3ncc4c(n3)N(CC)C(=O)OC4)cc2)CC1` [Example 23, 1-Ethyl-7-[[(1S)-1-[4-[(4-prop-2-enoylpiperazin-1-yl)methyl]phenyl]ethyl]amino]-4H-pyrimido[4,5-d][1,3]oxazin-2-one 4-hydroxybenzoic acid salt], the IC50 is 0.188 ± 0.048 µM in assay [1]; 0.234 ± 0.067 µM in assay [2]; 0.0321 ± 0.0136 µM in assay [3] (setting [5]); above 20 µM in assay [3] (setting [6]); 0.00903 ± 0.00075 µM in assay [4].

The values above are taken from US10253041B2, “7-phenylethylamino-4H-pyrimido[4,5-d][1,3]oxazin-2-one compounds and their use as mutant IDH1 inhibitors” (Eli Lilly and Company, priority 2015, dated 2019).
